Measured values taken from ChEMBL document CHEMBL5236546, “Potent and Subtype-Selective Dopamine D2 Receptor Biased Partial Agonists Discovered via an Ugi-Based Approach” (J Med Chem, 2021).

Experiments:
[1] = biological target: D(2) dopamine receptor (Homo sapiens, UniProt P14416)
Description: Partial agonist activity at D2 receptor (unknown origin) assessed as increase in cAMP accumulation

[2] = biological target: D(3) dopamine receptor (Homo sapiens, UniProt P35462)
Description: Partial agonist activity at human D3 receptor assessed as inhibition constant

[3] = biological target: T1, D(4) dopamine receptor (Homo sapiens, UniProt P21917)
T1 sequence (P21917 whole entry): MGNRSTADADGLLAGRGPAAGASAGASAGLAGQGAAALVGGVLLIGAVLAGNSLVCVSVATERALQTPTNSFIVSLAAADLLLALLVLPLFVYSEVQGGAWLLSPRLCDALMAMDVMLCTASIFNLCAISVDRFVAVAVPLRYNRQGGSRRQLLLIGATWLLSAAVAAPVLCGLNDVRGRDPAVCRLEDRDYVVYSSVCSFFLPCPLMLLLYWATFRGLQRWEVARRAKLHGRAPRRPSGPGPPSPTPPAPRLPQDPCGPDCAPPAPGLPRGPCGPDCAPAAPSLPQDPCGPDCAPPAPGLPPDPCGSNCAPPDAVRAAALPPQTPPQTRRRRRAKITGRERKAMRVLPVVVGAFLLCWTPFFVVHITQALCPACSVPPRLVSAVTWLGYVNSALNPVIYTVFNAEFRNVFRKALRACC
Description: Partial agonist activity at human D4 receptor assessed as inhibition constant

Chain of D(2) dopamine receptor (P14416 whole entry): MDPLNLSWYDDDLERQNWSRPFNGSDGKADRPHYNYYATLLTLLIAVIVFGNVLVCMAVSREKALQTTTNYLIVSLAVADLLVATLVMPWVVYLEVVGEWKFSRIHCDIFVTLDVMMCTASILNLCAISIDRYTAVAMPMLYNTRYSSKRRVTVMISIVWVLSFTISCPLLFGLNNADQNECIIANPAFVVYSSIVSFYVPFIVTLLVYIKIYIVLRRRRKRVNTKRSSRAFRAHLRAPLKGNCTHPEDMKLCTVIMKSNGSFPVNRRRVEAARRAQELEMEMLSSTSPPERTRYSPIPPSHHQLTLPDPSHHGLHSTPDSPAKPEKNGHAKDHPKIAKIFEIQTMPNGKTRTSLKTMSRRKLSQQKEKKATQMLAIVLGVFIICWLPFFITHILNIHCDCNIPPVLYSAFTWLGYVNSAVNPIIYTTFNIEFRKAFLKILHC
Chain of D(3) dopamine receptor (P35462 whole entry): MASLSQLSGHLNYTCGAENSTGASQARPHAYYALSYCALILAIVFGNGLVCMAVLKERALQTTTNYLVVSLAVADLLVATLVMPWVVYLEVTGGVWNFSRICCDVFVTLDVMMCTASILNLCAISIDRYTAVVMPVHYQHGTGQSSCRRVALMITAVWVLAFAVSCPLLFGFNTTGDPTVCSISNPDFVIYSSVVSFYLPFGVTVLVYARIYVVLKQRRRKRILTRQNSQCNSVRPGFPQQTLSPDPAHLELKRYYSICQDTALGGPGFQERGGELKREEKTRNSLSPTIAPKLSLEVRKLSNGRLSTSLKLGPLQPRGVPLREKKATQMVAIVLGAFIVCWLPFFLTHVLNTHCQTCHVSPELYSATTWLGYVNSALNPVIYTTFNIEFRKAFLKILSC

| EC50 [1] | Ki [2] | SMILES | Ki [3] |
| --- | --- | --- | --- |
| Not Active |  | Cn1ccc2c(N3CCN(CCCCOc4ccc5c(c4)NC(=O)CC5)CC3)cccc21 |  |
|  | 139 nM | CC1Cc2ccccc2N1C(=O)NCCCCN(C)[C@H]1Cc2cccc3[nH]c(=O)n(c23)C1 (some centres undefined) | Not Active |
|  |  | CN(C)C(=O)N[C@H]1CC[C@H](CCN2CCN(c3cccc(Cl)c3Cl)CC2)CC1 [CARIPRAZINE] | Not Active |
